According to patent publication US20060019907A1, “Guggulsterone: an inhibitor of nuclear factor - kappaB and IkappaBalpha kinase activation and uses thereof” (Research Development Foundation, priority 2004, published 2006):

Experiments:
[1] = target: T1, NF-κB proteins (Homo sapiens, UniProt P19838+Q04206); experiment: DNA binding of NF-κB in nuclear extracts incubated with guggulsterone (EMSA); type: biochemical; settings: nuclear extracts from TNF-activated H1299 cells treated with guggulsterone 4 hours at room temperature
T1 construct: endogenous in cells; nuclear extract
Method: NF-κB Activation: To determine NF-κB activation, EMSA was carried out as previously described (Chaturvedi et al., 2000). Briefly, nuclear extracts prepared from cells (2×10^6/ml) treated with TNF were incubated with ^32P-end-labeled 45-mer double-stranded NF-κB oligonucleotide (8 μg of protein with […] of DNA) from the human immunodeficiency virus long terminal repeat, 5′-[…] GGCGTGG-3′ (SEQ ID NO:1) (boldface indicates NF-κB binding sites), for 15 min at 37° C. The DNA-protein complex formed was separated from free oligonucleotide on 6.6% native polyacrylamide gels. A double-stranded mutated oligonucleotide, 5′-[…]-3′ (SEQ ID NO:2), was used to examine the specificity of binding of NF-κB to the DNA. The specificity of binding was also examined by competition with the unlabeled oligonucleotide. For supershift assays, nuclear extracts prepared from TNF-treated cells were incubated with antibodies against either the p50 or the p65 subunit of NF-κB for 30 min at room temperature before the complex was analyzed by EMSA. The dried gels were visualized, and radioactive bands were quantitated using a PHOSPHORIMAGER™ (Molecular Dynamics, Sunnyvale, Calif.) using IMAGEQUANT™ software. […]

[2] = tested on: JNK; experiment: JNK assay in MKK4 mutants and wild type cells; type: cell-based; settings: 10 μM
Method: (§1) JNK kinase assay. To determine the effect of guggulsterone on the kinase activity of JNK, JNK complex from whole-cell extracts was precipitated with antibody against JNK1, followed by treatment with protein A/G-Sepharose beads (Pierce, Rockford, Ill.). After 2 h of incubation, the beads were washed with lysis buffer and then assayed in kinase assay mixture containing 50 mM HEPES (pH 7.4), 20 mM MgCl2, 2 mM dithiothreitol, 20 μCi of [γ-^32P]ATP, 10 μM unlabeled ATP, and 2 μg of substrate GST-c-Jun (1-79). The immunocomplex was incubated at 30° C. for 30 min and then boiled with SDS sample buffer for 5 min. Finally, the protein was resolved on 10% SDS-PAGE, the gel was dried, and the radioactive bands were visualized using the PhosphorImager. To determine the total amount of JNK1 in each sample, whole-cell extracts were subjected to Western blot analysis using anti-JNK1 antibody.

[3] = tested on: JNK; experiment: JNK kinase assay; type: cell-based, human; settings: U937; 10 μM
Method: as §1

[4] = tested on: cyclin D1, cdc2, p21, p27, GADD45β, xIAP, Bfl-1/A1, Bcl-2, BclX1, cFLIP, survivin, c-myc, COX2; experiment: Western blot of cell cycle, anti-apoptotic, proliferative and metastatic gene products in U937 cells; type: cell-based, human; settings: 10 μM
Method: (§2) Western blot analysis. Thirty to fifty micrograms of cytoplasmic, nuclear or whole cell protein was resolved on 10% SDS-PAGE gel, transferred to a nitrocellulose membrane, blocked with 5% non-fat milk, and probed with specific antibodies as per manufacturer's recommended protocol. The blots were washed, exposed to HRP-conjugated secondary antibodies for 1 h, and detected by ECL reagent (Amersham Pharmacia Biotechnology, Piscataway, N.J.). The bands were quantitated using a Personal Densitometer Scan v1.30 using Imagequant software version 3.3 (Molecular Dynamics).

[5] = tested on: caspase 8, cytochrome c, caspase 3, PARP; experiment: Caspase activation, cytochrome c release and PARP cleavage, Western blot; type: cell-based, human; settings: U937; 10 μM
Method: as §2
Measurement of cytochrome c release. To determine the effect of guggulsterone on cytochrome c release, cells were treated with guggulsterone as indicated and then the cytosolic extracts were prepared as described (Yang, 1997). Briefly, the cells were washed with PBS, resuspended in the buffer containing 0.25 M sucrose, 30 mM Tris-HCl (pH 7.9), 1 mM EDTA, 1 mM PMSF, 2 mM sodium orthovanadate, 10 mM NaF, 2 μg/ml leupeptin, and 2 μg/ml aprotinin and then homogenized gently with a glass Dounce homogenizer for 20 strokes. The homogenates were centrifuged at 2000 rpm for 10 min to remove nuclei, and the supernatants were centrifuged at 14,000 rpm for 30 min to remove mitochondria and other insoluble fragments. The supernatants were again centrifuged as above to ensure complete removal of mitochondria. Protein ([…]) was subjected to 15% SDS-PAGE, and then Western blot analysis was performed using anti-cytochrome c antibody.
PARP cleavage assay. For detection of cleavage products of PARP, whole-cell extracts were prepared by subjecting guggulsterone-treated cells to lysis in lysis buffer (20 mM Tris, pH 7.4; 250 mM NaCl; 2 mM EDTA, pH 8.0; 0.1% Triton-X 100; 0.01 μg/ml aprotinin; 0.005 μg/ml leupeptin; 0.4 mM PMSF; and 4 mM NaVO4). Lysates were spun at 14000 rpm for 10 min to remove insoluble material, resolved by 10% SDS PAGE, and probed with PARP antibodies.

[6] = tested on: Akt; experiment: Akt activation in U937 cells, Western blot; type: cell-based, human; settings: 10 μM
Method: as §2

[7] = tested on: RAW 264.7 cells; experiment: Osteoclast differentiation assay, RANKL-induced; type: cell-based, mouse; settings: RANKL 5 nM
Method: (§3) Osteoclast differentiation assay: […] cells were cultured in 24-well dishes at a density of 1×10^4 cells per well and were allowed to adhere overnight. Medium was then replaced and the cells were treated with 5 nM (˜100 ng/ml) RANKL. At different days, cultures were stained for TRAP expression using an acid phosphatase kit, and the total number of TRAP-positive multinucleated osteoclasts (>3 nuclei) per well were counted.
as §3, with “assay.” for “assay:”, “(100” for “(˜100”, “day 5,” for “different days,”, “expression as described (Shevde et al., 2000)” for “expression”, “(3” for “(>3”

T1 sequence (Q04206 whole entry): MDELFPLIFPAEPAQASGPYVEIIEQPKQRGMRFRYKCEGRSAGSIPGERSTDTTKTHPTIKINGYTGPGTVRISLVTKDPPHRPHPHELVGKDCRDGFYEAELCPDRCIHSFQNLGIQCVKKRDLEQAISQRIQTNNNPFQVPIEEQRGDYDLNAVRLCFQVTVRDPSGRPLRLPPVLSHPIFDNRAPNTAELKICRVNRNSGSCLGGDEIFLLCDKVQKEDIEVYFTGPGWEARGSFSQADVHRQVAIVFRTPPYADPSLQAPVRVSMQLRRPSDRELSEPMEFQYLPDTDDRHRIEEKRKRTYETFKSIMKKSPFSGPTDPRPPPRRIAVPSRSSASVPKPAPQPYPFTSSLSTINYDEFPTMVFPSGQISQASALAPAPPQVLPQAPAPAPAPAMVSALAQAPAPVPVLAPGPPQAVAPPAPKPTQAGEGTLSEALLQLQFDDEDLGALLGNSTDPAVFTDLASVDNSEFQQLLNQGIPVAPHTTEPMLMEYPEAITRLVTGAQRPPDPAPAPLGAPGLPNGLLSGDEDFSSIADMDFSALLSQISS
T1 sequence (P19838 1-433 limits assumed): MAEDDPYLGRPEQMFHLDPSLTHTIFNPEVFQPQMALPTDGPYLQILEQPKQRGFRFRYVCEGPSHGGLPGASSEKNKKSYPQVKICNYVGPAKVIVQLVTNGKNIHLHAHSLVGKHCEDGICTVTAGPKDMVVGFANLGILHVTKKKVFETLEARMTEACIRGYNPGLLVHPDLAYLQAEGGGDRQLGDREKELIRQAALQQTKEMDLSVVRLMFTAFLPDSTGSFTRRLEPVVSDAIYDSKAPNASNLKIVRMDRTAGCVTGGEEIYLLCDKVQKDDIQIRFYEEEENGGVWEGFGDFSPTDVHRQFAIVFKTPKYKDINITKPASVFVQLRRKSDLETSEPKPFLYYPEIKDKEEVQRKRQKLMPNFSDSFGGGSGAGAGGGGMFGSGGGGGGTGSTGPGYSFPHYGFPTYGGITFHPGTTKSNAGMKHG

SMILES: CC=C1C(=O)C[C@H]2[C@@H]3CCC4=CC(=O)CC[C@]4(C)[C@H]3CC[C@]12C [guggulsterone, 4,17(20)-pregnadiene-3,16-dione]
- DNA-binding ability of NF-κB proteins [1]: did not modify the DNA-binding ability of NF-κB proteins
- guggulsterone induced JNK activation, dependence on MKK4 [2]: MKK4 is required for guggulsterone induced JNK activation
- JNK activation [3]: activation of JNK
- gene products involved in antiapoptosis (xIAP, Bfl-1/A1, Bcl-2, BclX1, cFLIP, survivin), proliferation (c-myc) and metastasis (COX2) [4]: inhibited the gene products involved in antiapoptosis
- levels of cyclin D1 and cdc2 [4]: decrease in the levels of cyclin D1 and cdc2
- levels of p21, p27 and GADD45β [4]: increase in the levels of cyclin dependent kinase inhibitor p21, p27
- caspase 3 activation and PARP cleavage [5]: activation of caspase 3 and PARP cleavage
- caspase 8 activation (receptor-mediated apoptosis) [5]: activation of caspase 8
- mitochondrial cytochrome c release (non-receptor mediated apoptosis) [5]: mitochondrial cytochrome c release
- Akt activation [6]: suppression of Akt-activation
- number of RANKL-induced osteoclasts ([7]; 5 days, TRAP): the number of osteoclasts decreased with increasing concentration of GS
- RANKL-induced osteoclastogenesis, GS added 24 h after RANKL ([7]; GS 5 μM, 5 days): inhibited osteoclastogenesis even when the cells were exposed 24 h after the RANKL treatment
- RANKL-induced osteoclastogenesis, GS added 3 days after RANKL ([7]; GS 5 μM, 5 days): the inhibitory effect decreased significantly
- RANKL-induced osteoclastogenesis (Example 1) ([7]; guggulsterone 5 μM, TRAP staining): inhibits RANKL-induced NF-κB activation and osteoclastogenesis
